Measurements reported in ChEMBL document CHEMBL4819019, “Design, synthesis, antibacterial activity and toxicity of novel quaternary ammonium compounds based on pyridoxine and fatty acids” (Eur J Med Chem, 2021).

Tests used:
Staphylococcus aureus = assay: Antibacterial activity against Staphylococcus aureus ATCC 29213 measured after 24 hrs by broth microdilution method; format: functional
Micrococcus luteus = assay: Antibacterial activity against Micrococcus luteus clinical isolate measured after 24 hrs by broth microdilution method; format: functional
Pseudomonas aeruginosa = assay: Antibacterial activity against Pseudomonas aeruginosa ATCC 27853 measured after 24 hrs by broth microdilution method; format: functional
Escherichia coli = assay: Antibacterial activity against Escherichia coli MG 1655 measured after 24 hrs by broth microdilution method; format: functional
Bacillus subtilis = assay: Antibacterial activity against Bacillus subtilis 168 measured after 24 hrs by broth microdilution method; format: functional
[1] = Lipophilicity, logP of the compound; format: physicochemical; details: octanol/water
[2] = Genotoxicity in Salmonella typhimurium TA100 assessed as number of revertant by Ames spot test relative to solvent control; format: toxicity; details: salmonella enterica subsp. enterica serovar typhimurium
[3] = Genotoxicity in Salmonella typhimurium TA1535 assessed as number of revertant by Ames spot test relative to solvent control; format: toxicity; details: salmonella enterica subsp. enterica serovar typhimurium
[4] = Genotoxicity in Salmonella typhimurium TA98 assessed as number of revertant by Ames spot test relative to solvent control; format: toxicity; details: salmonella enterica subsp. enterica serovar typhimurium
[5] = Genotoxicity in Salmonella typhimurium TA1537 assessed as number of revertant by Ames spot test relative to solvent control; format: toxicity; details: salmonella enterica subsp. enterica serovar typhimurium

MIC (Staphylococcus aureus) [µg/mL]	MIC (Micrococcus luteus) [µg/mL]	MIC (Pseudomonas aeruginosa) [µg/mL]	MIC (Escherichia coli) [µg/mL]	MIC (Bacillus subtilis) [µg/mL]	logP [1]	Compound	Ratio [2]	Ratio [3]	Ratio [4]	Ratio [5]
32	8	32	> 64	32	3.92	CCCCCCCCCCCCCCCC(=O)OCCC[N+](C)(C)Cc1cnc(C)c2c1COC(CCC)O2.[Cl-] (centres undefined)				
						COS(C)(=O)=O [METHANESULFONIC ACID METHYL ESTER]	2.7	30		
> 64	> 64	> 64	> 64	> 64	-2.09	CCCCCC(=O)NCCC[N+](C)(C)Cc1cnc(C)c2c1COC(C)(C)O2.[Cl-]				
2	2	> 64	2	4	3.19	CCCCCCCCCCCCCCCC(=O)NCCC[N+](C)(C)Cc1cnc(C)c2c1COC(C)(CCC)O2.[Cl-] (centres undefined)				
2	1	8	> 64	4	3.86	CCCCCCCCCCCCCCCC(=O)OCC[N+](C)(C)Cc1cnc(C)c2c1COC(CCC)O2.[Cl-] (centres undefined)				
1	1	2	32	4	2.93	CCCCCCCCCCCCCCCC(=O)NCC[N+](C)(C)Cc1cnc(C)c2c1COC(C)(C)O2.[Cl-]				
> 64	> 64	> 64	> 64	> 64	-1.25	CCCCCC(=O)NCCC[N+](C)(C)Cc1cnc(C)c2c1COC(CCC)O2.[Cl-] (centres undefined)				
2	1	> 64	64	1	1.62	CCCCCCCCCCCCCC(=O)NCCC[N+](C)(C)Cc1nc(C)c2c(c1CO)COC(CCC)O2.[Cl-] (centres undefined)				
8	16	> 64	> 64	16	3.13	CCCCCCCCCCCCCCCC(=O)NCC[N+](C)(C)Cc1cnc(C)c2c1COC(C)(CCC)O2.[Cl-] (centres undefined)				
1	2	32	4	2	2.08	CCCCCCCCCCCC(=O)OCC[N+](C)(C)Cc1cnc(C)c2c1COC(CCC)O2.[Cl-] (centres undefined)				
> 64	> 64	> 64	> 64	> 64	4.53	CCCCCCCCCCCCCC(=O)NCCC[N+](C)(C)Cc1cnc(C)c2c1COC(CCCCCCCC)O2.[Cl-] (centres undefined)				
> 64	> 64	> 64	> 64	> 64	4.08	CCCCCCCCCCCCCCCCCC(=O)NCCC[N+](C)(C)Cc1cnc(C)c2c1COC(C)(CCC)O2.[Cl-] (centres undefined)				
2	2	32	8	1	1.31	CCCCCCCCCCCC(=O)OCCC[N+](C)(C)Cc1cnc(C)c2c1COC(C)(C)O2.[Cl-]				
2	1	> 64	16	2	0.79	CCCCCCCCCCCCCC(=O)NCCC[N+](C)(C)Cc1nc(C)c2c(c1CO)COC(C)(C)O2.[Cl-]				
1	4	32	32	8	0.52	CCCCCCCCCCCC(=O)NCC[N+](C)(C)Cc1cnc(C)c2c1COC(C)(C)O2.[Cl-]				
> 64	> 64	> 64	> 64	> 64	4.02	CCCCCCCCCCCCCCCCCC(=O)NCC[N+](C)(C)Cc1cnc(C)c2c1COC(C)(CCC)O2.[Cl-] (centres undefined)				
1	2	> 64	64	0.5	1.52	CCCCCCCCCCCCCC(=O)OCCC[N+](C)(C)Cc1nc(C)c2c(c1CO)COC(C)(C)O2.[Cl-]				
4	4	64	16	4	1.25	CCCCCCCCCCCC(=O)OCC[N+](C)(C)Cc1cnc(C)c2c1COC(C)(C)O2.[Cl-]				
4	2	8	> 64	2	2.36	CCCCCCCCCCCCCCCC(=O)NCCC[N+](C)(C)Cc1cnc(C)c2c1COC(C)(C)O2.[Cl-]				

MIC (Staphylococcus aureus) [µg/mL]	MIC (Micrococcus luteus) [µg/mL]	MIC (Pseudomonas aeruginosa) [µg/mL]	MIC (Escherichia coli) [µg/mL]	MIC (Bacillus subtilis) [µg/mL]	logP [1]	Compound	Ratio [2]	Ratio [3]	Ratio [4]	Ratio [5]
4	16	> 64	> 64	> 64	4.35	CCCCCCCCCCCCCCCCCC[N+](C)(C)Cc1cnc(C)c2c1COC(C)(C)O2.[Cl-]				
2	2	> 64	> 64	1	3.19	CCCCCCCCCCCCCC(=O)NCCC[N+](C)(C)Cc1cnc(C)c2c1COC(CCCCC)O2.[Cl-] (centres undefined)				
2	2	> 64	64	2	2.29	CCCCCCCCCCCCCC(=O)OCC[N+](C)(C)Cc1nc(C)c2c(c1CO)COC(CCC)O2.[Cl-] (centres undefined)				
8	8	> 64	> 64	4	3.92	CCCCCCCCCCCCCC(=O)OCCC[N+](C)(C)Cc1cnc(C)c2c1COC(CCCCC)O2.[Cl-] (centres undefined)				
> 64	> 64	> 64	> 64	> 64	2.34	CCCCCCCCCC(C)C1OCc2c(C[N+](C)(C)CCCNC(=O)CCCCC)cnc(C)c2O1.[Cl-] (centres undefined)				
1	4	32	8	4	1.41	CCCCCCCCCCCC(=O)NCCC[N+](C)(C)Cc1cnc(C)c2c1COC(C)(CCC)O2.[Cl-] (centres undefined)				
0.5	0.5	4	> 64	1	3.03	CCCCCCCCCCCCCCCC(=O)OCC[N+](C)(C)Cc1cnc(C)c2c1COC(C)(C)O2.[Cl-]				
2	1	4	> 64	2	3.03	CCCCCCCCCCCCCC(=O)OCCC[N+](C)(C)Cc1cnc(C)c2c1COC(CCC)O2.[Cl-] (centres undefined)				
						Nc1ccc([N+](=O)[O-])cc1N			4.2	3.7
2	2	16	16	2	2.2	CCCCCCCCCCCCCC(=O)OCCC[N+](C)(C)Cc1cnc(C)c2c1COC(C)(C)O2.[Cl-]				
2	4	> 64	64	2	1.56	CCCCCCCCCCCCCC(=O)NCC[N+](C)(C)Cc1nc(C)c2c(c1CO)COC(CCC)O2.[Cl-] (centres undefined)				
64	64	> 64	64	64	-0.78	CCCCCCCC[N+](C)(C)Cc1nc(C)c2c(c1CO)COC(C)(C)O2.[Cl-]				
16	2	32	> 64	8	3.09	CCCCCCCCCCCCCCCC(=O)OCCC[N+](C)(C)Cc1cnc(C)c2c1COC(C)(C)O2.[Cl-]				
2	2	> 64	2	2	2.3	CCCCCCCCCCCCCC(=O)NCCC[N+](C)(C)Cc1cnc(C)c2c1COC(C)(CCC)O2.[Cl-] (centres undefined)				
> 64	> 64	> 64	> 64	> 64	5.25	CCCCCCCCCCCCCC(=O)OCCC[N+](C)(C)Cc1cnc(C)c2c1COC(CCCCCCCC)O2.[Cl-] (centres undefined)				
4	2	8	> 64	8	3.19	CCCCCCCCCCCCCCCCCC(=O)NCC[N+](C)(C)Cc1cnc(C)c2c1COC(C)(C)O2.[Cl-]				
2	2	> 64	64	2	2.35	CCCCCCCCCCCCCC(=O)OCCC[N+](C)(C)Cc1nc(C)c2c(c1CO)COC(CCC)O2.[Cl-] (centres undefined)				
8	16	64	64	8	0.58	CCCCCCCCCCCC(=O)NCCC[N+](C)(C)Cc1cnc(C)c2c1COC(C)(C)O2.[Cl-]				
